US7309691B2, “Combined pharmaceutical preparation containing LHRH-analogous substances and anti estrogens for treating gynaecological disorders” (Achering Aktiengesellschaft, priority 1996, dated 2007)

What was measured:
[1] = tested on: experimentally produced endometriosis (cystic endometriosis foci); experiment: Experimentally produced endometriosis in the rat (transplanted endometrium fragments)
Experimental: Fragments of endometrium were transplanted into different regions of the abdominal cavity of 60 animals.
Four weeks later the development of the endometriosis (cystic endometriosis foci) was examined.
The animals were then treated for 4 weeks with the LHRH antagonists Antide (0.5 mg/animal every 3 days s.c.) and Raloxifen (3 mg/animal per day p.o.) in each case alone, or in a combination of the two compounds. At the end the size of the endometriosis foci before the beginning of the treatment was compared with the values after 4 weeks' treatment.
60 animals received the LHRH antagonist Antide and Raloxifen in parallel for the first 2 weeks and Raloxifen alone for the following 2 weeks. The doses were selected as in 1.1.
60 animals received the LHRH antagonist Antide for 2 weeks. On completion of the LHRH administration Raloxifen was then administered for 2 weeks.
Analogously to Example 1, treatment with LHRH antagonists Ac-D-Nal-D-Cpa-D-Pal-Ser-Tyr-D-Cit-Leu-Lys(Mor)-D-Ala-NH2 and Droloxifen was carried out on 40 animals.

[2] = women; literature; cited from earlier work

| osteoclast activity ([1]; rat, in vivo) | Compound | endogenous oestrogen levels ([1]; 1.1: 4 weeks' treatment, alone) | regression of the endometriosis foci (size before vs after treatment) ([1]; 1.1: 4 weeks' treatment, Antide 0.5 mg/animal every 3 days s.c., Raloxifen 3 mg/animal per day p.o., each alone or simultaneous combination) | side effects of treatment [2] |
| --- | --- | --- | --- | --- |
| increase | Antide | reduction in endogenous oestrogen levels corresponding to an ovariectomy | complete regression |  |
|  | C#C[C@]1(O)CC[C@H]2[C@@H]3CCC4=Cc5oncc5C[C@]4(C)[C@H]3CC[C@@]21C [danazol] |  |  | androgenisation phenomena |
